The source of these data is publication PMC6733959, “Synthesis and Evaluations of Novel Apocynin Derivatives as Anti-Glioma Agents” (Frontiers in Pharmacology, 2019).

One data set concerns rat BMECs. As to the kind of experiment: Cytotoxicity of apocynin derivatives on rat BMECs (MTT, 24 h). Format: cell-based. As to conditions: 100 μM, vs control, P < 0.05. The protocol: Rat brain microvascular endothelial cells (BMECs) were separated from the cerebral cortex of 18-day-old male Sprague-Dawley rats as described previously ([Biegel et al., 1995]). Briefly, the cerebral cortical tissues were dissected from meninges after the rats were sacrificed, then the tissues were homogenated in physiological buffer solution (pH 7.4). After centrifugation, the pellets were collected, and the microvascular segments were then digested with 0.1% collagenase II at 37°C for 1 h. […] The second passage was used for co-culture of BBB cellular models.
Rat BMECs were collected and seeded into 96-well culture plates at a density of 7.5 × 10^3 cells/well overnight. The cells were treated with different concentrations of the compounds (10, 20, and 100 μM) for 24 h, respectively. Then, 20-μl MTT (5 mg/ml) in fresh medium was added to each well and incubated for another 4 h. Finally, 150μl dimethyl sulfoxide (DMSO) was added to dissolve formazan crystals, and the absorbance was detected at 490 nm in a multiwall-plate reader (BioTek ELx800).

The subject of the next data set is human glioma U87 cells. As to the kind of experiment: Anti-glioma MTT assay, U87 cells. Format: cell-based. As to conditions: for pIC50: Homo sapiens, U-87 MG, U87 cells. The protocol: (§1) The anti-glioma effects of these compounds were evaluated by MTT assay in rat C6 glioma cells, human glioma U87 and U251 cells, and BMECs cells. Brieﬂy, cells were seeded at the density of 4,000 cells/well in 96-well plates overnight. For the first screening, the cells were incubated with 10, 20, 100 μM compounds for 48 h. Then cell viabilities were detected by MTT assay as described above. For the second screening, the cells were incubated with 6.25-, 12.5-, 25-, 50-, and 100μM compounds for 48 and 96 h, and then detected by MTT assay. The OD of each well was measured at 490 nm on an ELISA microplate reader. The inhibitory rates and IC50 values were calculated.

Another data set has as its system human glioma U251 cells. The data set is described as follows: Anti-glioma MTT assay, U251 cells. Format: cell-based. The method, then:
as §1
In general terms: Tetrazolium assays rely on reduction of a dye to a coloured formazan, in cell work by metabolically active cells.

The next data set deals with ROS levels in C6 cells. The data set is described as follows: Intracellular ROS levels (DCF, flow cytometry), C6 cells. The class given is cell-based, rat. As to conditions: 20 and 50 μM, 48 h, P < 0.05. The method, then:
Intracellular reactive oxygen species (ROS) levels were detected using Reactive Oxygen Species Assay Kit (Jiancheng Bioengineering, Nanjing, China) as per the manufacturer’s instruction. Brieﬂy, after treatment with indicated concentrations of test compound (20, 50 μM) for 48 h, the cells were incubated in 1 ml 2,7-dichloroﬂuorescin diacetate working solution (100 μM) for 30 min at 37°C in the dark, and washed with PBS. Then ﬂuorescence intensities of intracellular DCF were detected using a FACS Calibur ﬂow cytometer (Becton-Dickinson, San Jose, CA, USA). H2O2 treatment group was used as the positive control group.

A further data set concerns NADPH oxidase (NOX). The data set is described as follows: NOX activity determination, C6 cells. Format: cell-based, rat. As to conditions: 20 and 50 μM. The method, then:
The effects of candidate drug on NOX activities were measured using cytochrome c reductase (NADPH) Assay Kit (Sigma-Aldrich, St. Louis, MO, USA). Brieﬂy, after the compound treatment (20, 50 μM), the cells were collected and homogenized in an isotonic buffer ([…]), and centrifuged at 1,000 g to obtain the post-nuclear supernatants. Then 50μl samples were added to 950μl working solution (at 25°C) in a 1ml cuvette and mixed by inversion. Then 20μl cytochrome c oxidase inhibitor solution was added. After reaction with 100 μl NADPH solution, the cytochrome c absorbance was monitored at 550 nm by a spectrophotometer.

For a further data set, the system named is C6 cells. As to the kind of experiment: Apoptosis by Annexin V-FITC/PI staining, C6 cells. Format: cell-based, rat. The settings on record: 48 h, mean ± SD. The method, then:
The effects of test compound on apoptosis were detected by Annexin V-FITC/PI staining. Briefly, after treatment with indicated concentrations of test compounds (20, 50 μM) for 48 h, the cells were collected and resuspended in 500-μl detection buffer. Then 5μl PI and 5μl Annexin V-FITC were added to the detection buffer. Then, cells were incubated for 15 min in the dark and analyzed using Flow cytometer (Becton Dickinson) and WinMDI 2.8 software (Scripps Institute, La Jolla, CA, USA).

The test system of data set [1] is NF-κB pathway-related proteins. As to the kind of experiment: Western blot of NF-κB pathway-related proteins, U87 cells. Format: cell-based, human. As to conditions: 20 and 50 μM, 48 h. The method, then: Briefly, after treatment with indicated concentrations of test compound (20, 50 μM) for 48 h, the cells were collected, and total cell lysates and nucleus fractions were extracted. Twenty micrograms of cellular protein were subjected to electrophoresis on 12% SDS-polyacrylamide gels and then transferred to polyvinylidene difluoride membranes. The membranes were first incubated with 5% BSA for 2 h at 37°C and then incubated with the first antibodies overnight at 4°C. After HRP-labeled secondary antibodies (1:1,000-dilution) incubation, protein bands were visualized with the enhanced chemiluminescence (ECL) detection solution. The intensity of bands was quantified using ImageJ 1.43 software (National Institutes of Health, Bethesda, MD, USA).
For orientation: Immunoblotting shows a protein as a band on a membrane.

Each structure is given as a SMILES string. pIC50: −log10 of the molar value.

With `COc1cc(C(=O)CSCc2ccccc2Cl)ccc1O` [Compound D31, 2-((2-Chlorobenzyl)thio)-1-(4-Hydroxy-3-Methoxyphenyl)Ethan-1-One], in the data set with rat BMECs, the “Effect on cell viability of rat BMECs” value was “significantly inhibit the cell viability”. Moreover, the “Anti-proliferation effect on U87 cells (first screening)” value in the data set with human glioma U87 cells (10, 20, 100 μM, 48 h, compared with D1, P < 0.05) is on record as “significant anti-proliferation effects”. Also, the pIC50 is 4.63 with human glioma U87 cells (48 h); 4.67 in the data set on human glioma U87 cells (96 h); 4.40 in the data set on human glioma U251 cells (U-251, 48 h); 4.46 in the data set with human glioma U251 cells (U-251, 96 h). Further, in the data set on ROS levels in C6 cells, the “Fluorescence intensity of DCF (ROS generation) vs control” value is recorded as “significant increases”. Further, the “Effect on NOX activities vs control” value with NADPH oxidase (NOX) was “no obvious effects”. For the same compound, the Apoptotic cell rate in the data set on C6 cells (20 μM) was determined as 27.9 ± 4.2%; with C6 cells (50 μM), 32.2 ± 5.0%. The IκBα expression entry in data set [1] was “obviously decreased”. For the same compound, the “nucleus p-NF-κB p65 expression” value in data set [1] is listed as “obviously increased”. Moreover, the p-IKKα/β expression entry in data set [1] is given as “obviously increased”.

The term pIC50 denotes −log10 of the IC50, conventionally taken in molar units.
